Data reported in patent US11484608B2, “Non-invasive assessment of hepatic mitochondrial metabolism by positional isotopomer NMR tracer analysis (PINTA)” (YALE UNIVERSITY, priority 2017, dated 2022).

Tested on: hepatic mitochondrial oxidation, NAFLD, glucose tolerance
Test: Chronic 10-day glucagon infusion in high fat fed rats
Assay type: in vivo, rat
Protocol: During week 3 of the diet, rats underwent surgery under isoflurane anesthesia to place catheters in the jugular vein and carotid artery, and recovery was confirmed by regaining the pre-surgical body weight prior to in vivo studies. […] Rats were fasted for 8 hr prior to sacrifice with IV pentobarbital.
In the rat studies, blood was collected from the jugular venous catheter. In both species, samples were immediately centrifuged (12,000 rpm) to separate plasma from red blood cells. PINTA analysis of hepatic mitochondrial fluxes was employed in both rats and mice (see Example 1). Briefly, mice were infused with a two-hour primed (5 min, 3×)-continuous infusion of [3-^13C] lactate (40 μmol kg^−1 min^−1) and [1,2,3,4,5,6,6-^2H7] glucose (0.1 mg kg^−1 min^−1). Rats were infused with lactate at the same rate, as well as [3-^3H] glucose (0.1 mCi kg^−1 min^−1). At the conclusion of the study, animals were euthanized with IV pentobarbital.
In the glucose tolerance tests, rodents were injected with 1 g kg^−1 50% dextrose (rats) or 10% dextrose (mice) intraperitoneally. Blood samples were taken through the venous catheter (rats) or by tail bleeding (mice) for measurement of plasma glucose and insulin concentrations as described below (Biochemical analysis).
Plasma glucose concentrations were measured using a YSI Glucose Analyzer. […] Plasma NEFA concentrations were measured using the Wako NEFA assay, while plasma glycerol and plasma and liver amino acid concentrations were measured by GC/MS. […] Protein concentrations were measured by Western blot, using antibodies from Santa Cruz (PC, PEPCK, CAMKII), Cell Signaling (ATGL, pCAMKIV, CAMKIV, pCRTC2, CRTC2, pACC, ACC, pAMPK, AMPK, pHSL, HSL, GAPDH, and β-actin), Novus Biologicals (pCAMKII), Abcam (pATGL), LSBio (pInsP3R-I), and BD Transduction Laboratories (InsP3R-II, InsP3R-III, PKCε). The antibody to pATGL was kindly provided by Dr. Hei Sook Sul, while the antibody to total InsP3R-I was custom-made using an epitope against the last 18 amino acids of InsP3R-I. Gluconeogenic gene mRNA expression was measured by qPCR^45 using primers sequences as follows: […]

[1] = HFD rats, two hours after withdrawal of glucagon infusion
[2] = intraperitoneal glucose tolerance test, HFD rats
[3] = rat liver, chronic glucagon infusion
[4] = rats, chronic glucagon infusion

Substance: glucagon
- food intake, body weight, and hepatic ceramide content (HFD rats, chronic glucagon): similar
- hepatic VPK flux (HFD rats, chronic glucagon): did not change
- hepatic VPK flux as proportion of hepatic VPC flux (HFD rats, chronic glucagon): 15-20%
- liver glycogen content (HFD rats, chronic glucagon): reductions
- protein kinase C-epsilon (PKCε) translocation (HFD rats, chronic glucagon): marked reductions
- reductions in hepatic triglyceride and diacylglycerol concentrations (HFD rats, chronic glucagon): 50-90%
- hepatic acetyl- and malonyl-CoA content (HFD rats, glucagon withdrawn four hours before sacrifice): suppression
- increase in rates of hepatic mitochondrial oxidation (HFD rats, ten days glucagon 5 ng kg^−1 min^−1): two-fold
- reductions in fasting plasma glucose [1]: 1.4 mM
- reductions in fasting plasma insulin concentrations [1]: 50%
- reduction in glucose area under the curve [2]: 20%
- reduction in insulin area under the curve [2]: 60%
- Cytosolic DAG C16, C16 [3]: 1.8 ± 0.2 nmol/g
- Cytosolic DAG C16, C18_2 [3]: 7.2 ± 1.0 nmol/g
- Cytosolic DAG C16 C20_4 [3]: 0.5 ± 0.1 nmol/g
- Cytosolic DAG C18, C16 [3]: 1.7 ± 0.1 nmol/g
- Cytosolic DAG C18, C18 [3]: 5.6 ± 0.6 nmol/g
- Cytosolic DAG C18 C20_4 [3]: 13.6 ± 1.1 nmol/g
- Cytosolic DAG C18_1, C18 [3]: 0.6 ± 0.1 nmol/g
- Cytosolic DAG C18_1, C18_1 [3]: 4.2 ± 0.5 nmol/g
- Cytosolic DAG C18_1, C18_2 [3]: 4.0 ± 0.5 nmol/g
- Cytosolic DAG C18_1 C16 [3]: 5.3 ± 0.9 nmol/g
- Cytosolic DAG C18_2, C18 [3]: 0.9 ± 0.1 nmol/g
- Cytosolic DAG C18_2, C18_2 [3]: 3.6 ± 0.6 nmol/g
- Cytosolic DAG C20_4 C20_5 [3]: 0.5 ± 0.1 nmol/g
- Cytosolic DAG Total DAG [3]: 38.3 ± 3.1 nmol/g
- Membrane DAG C16, C16 [3]: 10.2 ± 2.6 nmol/g
- Membrane DAG C16, C18_2 [3]: 97.3 ± 13.4 nmol/g
- Membrane DAG C16 C20_4 [3]: 4.2 ± 0.7 nmol/g
- Membrane DAG C18, C16 [3]: 4.9 ± 0.5 nmol/g
- Membrane DAG C18, C18 [3]: 6.5 ± 0.5 nmol/g
- Membrane DAG C18 C20_4 [3]: 21.5 ± 2.4 nmol/g
- Membrane DAG C18_1, C18 [3]: 3.6 ± 0.4 nmol/g
- Membrane DAG C18_1, C18_1 [3]: 44.1 ± 7.2 nmol/g
- Membrane DAG C18_1, C18_2 [3]: 58.7 ± 7.8 nmol/g
- Membrane DAG C18_1 C16 [3]: 50.0 ± 9.0 nmol/g
- Membrane DAG C18_2, C18 [3]: 7.8 ± 0.7 nmol/g
- Membrane DAG C18_2, C18_2 [3]: 44.0 ± 10.7 nmol/g
- Membrane DAG Total DAG [3]: 364.0 ± 44.7 nmol/g
- Ceramide C16 [4]: 40.1 ± 10.2 nmol/g
- Ceramide C18 [4]: 7.1 ± 1.4 nmol/g
- Ceramide C20 [4]: 15.9 ± 3.7 nmol/g
- Ceramide C22 [4]: 26.9 ± 5.2 nmol/g
- Ceramide C24 [4]: 52.8 ± 10.9 nmol/g
- Ceramide C24:1 [4]: 15.2 ± 3.9 nmol/g
- Total ceramide [4]: 158.0 ± 33.4 nmol/g
- increases in hepatic mitochondrial fat oxidation (VFAO) (short-term continuous glucagon treatment): two-fold
